Patent US8158621B2, “Methods of treating or preventing autoimmune diseases with 2,4-pyrimidinediamine compounds” (Rigel Pharmaceuticals, Inc., priority 2002, dated 2012)
Like-named read-outs stand apart in the source and are kept apart here.

Legend:
[1] = test system: cultured human mast cells (CHMC); experiment: CHMC low cell density IgE activation: tryptase assay; type: cell-based; conditions: read-out: CHMC anti-IgE Tryptase
Description: Pellet CHMC cells (980 rpm, 10 min) and resuspend in pre-warmed MT. Add 65 ul of cells to each 96-well plate. Depending on the degranulation activity for each particular CHMC donor, load 1000-1500 cells/well. Mix four times followed by a 1 hr incubation at 37° C. […] Stimulate cells by adding 25 ul of 6× anti-IgE solution to the appropriate plates. Add 25 ul MT to un-stimulated control wells. Mix twice following addition of the anti-IgE. Incubate at 37° C. for 30 minutes. […] Spin plates at 1000 rpm for 10 min to pellet cells. Transfer 25 ul of supernatant to a 96-well black bottom plate and add 100 ul of freshly diluted tryptase substrate solution to each well. Incubate plates at room temperature for 30 min.

[2] = test system: Human Jurkat T-cells (clone N); experiment: Jurkat T-cell activation (anti-TCR, CD69 upregulation); type: cell-based
How it was run: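 Readout is CD69 upregulation by flow cytometry (anti-CD69-APC, 20 min at 4 °C) after 20 h anti-TCR (C305, 500 ng/ml) stimulation at 37 °C.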

[3] = Homo sapiens, Mast cell, Low Density

SMILES	IC50 ([1]; low cell density)	other results
CNC(=O)COc1cccc(Nc2ncc(F)c(Nc3ccc(OC4CCC(NC(=O)OC(C)(C)C)CC4)c(Cl)c3)n2)c1 (mixture of isomers) [Compound R945384]	913 nM	
CNC(=O)COc1cccc(Nc2ncc(F)c(Nc3ccc(OC4CCC(N)CC4)c(Cl)c3)n2)c1 (mixture of isomers) [Compound R945403]	1700 nM	
CCNC1CCC(Oc2ccc(Nc3nc(Nc4cccc(OCC(=O)NC)c4)ncc3F)cc2Cl)CC1 (mixture of isomers) [Compound R945411]	2860 nM	
CC1Oc2ccc(Nc3nc(Nc4ccc5c(c4)C(N)CCO5)ncc3F)cc2NC1=O (mixture of isomers) [Compound R950438]	888 nM	
CNC(=O)COc1cccc(Nc2ncc(F)c(Nc3ccc4c(c3)C(NC)CCO4)n2)c1 (racemic) [Compound R950412]	301 nM	
CNC(=O)COc1cccc(Nc2ncc(F)c(Nc3ccc4c(c3)C(NC(=O)CN(C)C)CCO4)n2)c1 (racemic) [Compound R950416]	2270 nM	
COc1cc(Nc2ncc(F)c(Nc3ccc4c(c3)C(NC(=O)OC(C)(C)C)CCO4)n2)cc(OC)c1 (racemic) [Compound R950425]	1150 nM	
COc1ccc(Nc2ncc(F)c(Nc3ccc4c(c3)C(NC(=O)OC(C)(C)C)CCO4)n2)cc1Cl (racemic) [Compound R950427]	1900 nM	
CC(C)(C)OC(=O)NC1CCOc2ccc(Nc3nc(Nc4ccc(Cl)c(Cl)c4)ncc3F)cc21 (racemic) [Compound R950429]	3970 nM	
COc1cc(Nc2nc(Nc3ccc4c(c3)C(NC(=O)OC(C)(C)C)CCO4)ncc2F)cc(OC)c1 (racemic) [Compound R950432]	2420 nM	
CC(C)(C)OC(=O)NC1CCOc2ccc(Nc3ncc(F)c(Nc4ccc(Cl)c(Cl)c4)n3)cc21 (racemic) [Compound R950433]	> 10000 nM	
COc1cc(Nc2nc(Nc3ccc4c(c3)C(N)CCO4)ncc2F)cc(OC)c1 (racemic) [Compound R950436]	5530 nM	
NC1CCOc2ccc(Nc3ncc(F)c(Nc4ccc(Cl)c(Cl)c4)n3)cc21 (racemic) [Compound R950437]	811 nM	
CNC(=O)COc1cccc(Nc2ncc(F)c(Nc3ccc4c(c3)C(NS(=O)(=O)c3ccc(C)cc3)CCO4)n2)c1 (racemic) [Compound R950493]	1890 nM	
CNC(=O)COc1cccc(Nc2ncc(F)c(Nc3ccc4c(c3)C(NS(C)(=O)=O)CCO4)n2)c1 (racemic) [Compound R950494]	> 10000 nM	
Cn1ncc2ccc(Nc3ncc(F)c(Nc4ccc5c(c4)NC(C)(C)CO5)n3)cc21 [Compound R908592]	50 nM	
COc1c(Cl)cc(Nc2ncc(F)c(Nc3ccc4c(c3)C(=O)NC(=O)C4(C)C)n2)cc1Cl [Compound R908955]	293 nM	
Fc1cnc(Cl)nc1Nc1ccc(Cl)nc1 [Compound R920400]		IC50 [1, 3]: > 10000 nM
Cc1ccnc(Nc2nc(Cl)ncc2F)c1 [Compound R920401]		IC50 [1, 3]: > 10000 nM
Fc1cnc(Cl)nc1Nc1cccc(OC(F)(F)F)c1 [Compound R920402]		IC50 [1, 3]: > 10000 nM
Fc1cnc(Cl)nc1Nc1ccc2ncccc2c1 [Compound R920409]		IC50 [1, 3]: > 10000 nM
CNC(=O)COc1cccc(Nc2ncc(F)c(Nc3ccc(OC(C)C)c(Cl)c3)n2)c1 [Compound R926973]	284 nM	
CNC(=O)COc1cccc(Nc2ncc(F)c(Nc3cc(C)c(OC)c(Cl)c3)n2)c1 [Compound R926974]	293 nM	
COc1cc(Nc2ncc(F)c(Nc3ccc(N4CCOCC4)c(Cl)c3)n2)cc(OC)c1 [Compound R926986]	345 nM	

SMILES	IC50 ([1]; low cell density)	other results
COc1cc(Nc2ncc(F)c(Nc3ccc(N4CCOCC4)c(Cl)c3)n2)cc(C(F)(F)F)c1 [Compound R926987]	10000 nM	
CNC(=O)COc1cccc(Nc2ncc(F)c(Nc3ccc(OC)c(Cl)c3)n2)c1 [Compound R926989]	199 nM	
COc1ccc(Nc2nc(Nc3cc(Cl)cc(Cl)c3)ncc2F)cc1Cl [Compound R926990]	11300 nM	
COc1ccc(Nc2nc(Nc3cc(C)cc(C)c3)ncc2F)cc1Cl [Compound R926991]	436 nM	
COc1ccc(Nc2nc(Nc3cc(C)c(C)c(C)c3)ncc2F)cc1Cl [Compound R926993]	689 nM	
Cc1cc(Nc2ncc(F)c(Nc3ccc4c(c3)NC(=O)C(C)(C)O4)n2)cc(C)c1C [Compound R926994]	61 nM	
COc1ccc(Nc2nc(Nc3ccc4c(c3)CC(C(=O)N(C)C)O4)ncc2F)cc1Cl (stereo not shown) [Compound R927052]	678 nM	
CN(C)C(=O)C1Cc2cc(Nc3ncc(F)c(Nc4ccc(OC(F)(F)F)c(Cl)c4)n3)ccc2O1 (stereo not shown) [Compound R927053]	671 nM	
COc1ccc(Nc2nc(Nc3cc(Cl)c(OC)c(Cl)c3)ncc2F)cc1Cl [Compound R927054]	> 10000 nM	
COc1c(Cl)cc(Nc2ncc(F)c(Nc3ccc(OC(F)(F)F)c(Cl)c3)n2)cc1Cl [Compound R927055]	> 10000 nM	
CNC(=O)COc1cccc(Nc2ncc(F)c(Nc3cc(Cl)c(OC)c(Cl)c3)n2)c1 [Compound R927057]	370 nM	
COc1c(Cl)cc(Nc2ncc(F)c(Nc3ccc(Cl)c(Cl)c3)n2)cc1Cl [Compound R927058]	12200 nM	
CC1(C)Oc2ccc(Nc3ncc(F)c(Nc4ccc(Cl)c(Cl)c4)n3)cc2NC1=O [Compound R927059]	291 nM	
COc1ccc(Nc2ncc(F)c(Nc3ccc4c(c3)NC(=O)C(C)(C)O4)n2)c(OC)n1 [Compound R927068]	890 nM	
COc1cc(Nc2ncc(F)c(Nc3ccc4c(c3)NC(=O)C(C)(C)O4)n2)cc(OC)c1 [Compound R927071]	67 nM	
COc1cc(Nc2ncc(F)c(Nc3ccc4c(c3)NC(=O)C(C)(C)O4)n2)cc(OC)c1 [Compound R927072]	64 nM	
COc1cc(Nc2ncc(F)c(Nc3ccc4c(c3)NC(=O)C(C)(C)O4)n2)cc(OC)c1 [Compound R927073]	66.8 nM	
Cc1cc(C)cc(Nc2ncc(F)c(Nc3ccc4c(c3)NC(=O)C(C)(C)O4)n2)c1 [Compound R927076]	71 nM	
Cc1cccc(C)c1Nc1ncc(F)c(Nc2ccc(Cl)c(Cl)c2)n1 [Compound R927079]	599 nM	
OCCOc1ccc(Nc2ncc(F)c(Nc3cccc(O)c3)n2)cc1 [Compound R935155]		IC50 [1, 3]: 401 nM
Fc1cnc(Cl)nc1Nn1cccc1 [Compound R935275]		IC50 [1, 3]: > 10000 nM
OCCCn1ncc2cc(Nc3ncc(F)c(Nc4ccc(F)c(F)c4)n3)ccc21 [Compound R935386]	291 nM	
CCOC(=O)CCn1ncc2cc(Nc3ncc(F)c(Nc4ccc(Cl)c(Cl)c4)n3)ccc21 [Compound R935389]	877 nM	
CNC(=O)CCn1ncc2cc(Nc3ncc(F)c(Nc4ccc(Cl)c(Cl)c4)n3)ccc21 [Compound R935390]	544 nM	

SMILES	IC50 ([1]; low cell density)	other results
Cn1ncc2ccc(Nc3nc(Cl)ncc3F)cc21 [Compound R935394]	> 10000 nM	
Cc1cc(Nc2ncc(F)c(Nc3ccc4cnn(C)c4c3)n2)cc(Cl)c1O [Compound R935395]	276 nM	
COC(=O)c1ccc(Cn2cc3ccc(Nc4ncc(F)c(Nc5ccc(Cl)c(Cl)c5)n4)cc3n2)c(OC)c1 [Compound R935396]	2580 nM	
CNC(=O)c1ccc(Cn2ncc3ccc(Nc4ncc(F)c(Nc5ccc6c(c5)OCCO6)n4)cc32)c(OC)c1 [Compound R935399]	909 nM	
Fc1ccc(Nc2nc(Nc3ccc4cn[nH]c4c3)ncc2F)cc1F [Compound R935400]	502 nM	
Cn1ncc2ccc(Nc3ncc(F)c(Nc4ccc(F)c(F)c4)n3)cc21 [Compound R935401]	510 nM	
COc1ccc(Nc2nc(Nc3ccc4cnn(C)c4c3)ncc2F)cc1Cl [Compound R935402]	216 nM	
CCOC(=O)CCn1ncc2ccc(Nc3ncc(F)c(Nc4ccc(Cl)c(Cl)c4)n3)cc21 [Compound R935403]	821 nM	
CNC(=O)CCn1ncc2ccc(Nc3ncc(F)c(Nc4ccc(Cl)c(Cl)c4)n3)cc21 [Compound R935404]	581 nM	
OCCCn1ncc2ccc(Nc3ncc(F)c(Nc4ccc(Cl)c(Cl)c4)n3)cc21 [Compound R935405]	389 nM	
CCOC(=O)CCn1ncc2ccc(Nc3ncc(F)c(Nc4ccc(OC)c(Cl)c4)n3)cc21 [Compound R935406]	1170 nM	
COc1ccc(Nc2nc(Nc3ccc4cnn(CCCO)c4c3)ncc2F)cc1Cl [Compound R935407]	393 nM	
CNC(=O)CCn1ncc2ccc(Nc3ncc(F)c(Nc4ccc(OC)c(Cl)c4)n3)cc21 [Compound R935409]	1170 nM	
COc1cc(Nc2nc(Nc3ccc4c(cnn4C)c3)ncc2F)ccc1F [Compound R935410]	417 nM	
Cn1ncc2cc(Nc3ncc(F)c(Nc4ccc(Cl)c(F)c4)n3)ccc21 [Compound R935411]	> 10000 nM	
COc1ccc(Nc2nc(Nc3ccc4c(cnn4C)c3)ncc2F)cc1OC [Compound R935412]	696 nM	
Fc1cc(Nc2nc(Nc3ccc4[nH]ncc4c3)ncc2F)ccc1Cl [Compound R935415]	237 nM	
COc1cc(Nc2nc(Nc3ccc4[nH]ncc4c3)ncc2F)ccc1F [Compound R935417]	417 nM	
COc1c(C)cc(Nc2ncc(F)c(Nc3ccc4cnn(C)c4c3)n2)cc1Cl [Compound R935419]	230 nM	
COc1cc(Nc2ncc(F)c(Nc3ccc4cnn(C)c4c3)n2)cc(OC)c1 [Compound R935420]	561 nM	
CNC(=O)COc1cccc(Nc2ncc(F)c(Nc3ccc4c(c3)C=CCO4)n2)c1 [Compound R950385]		IC50 [2]: 2580 nM
CNC(=O)COc1cccc(Nc2ncc(F)c(Nc3ccc(OC)c(CO)c3)n2)c1 [Compound R950386]		IC50 [2]: 11400 nM
